Laboratory results reported in patent US20240254086A1, “(HETERO)ARYLAMIDE COMPOUND AND PEST CONTROL AGENT” (Nippon Soda Co., Ltd., priority 2021, published 2024).

Key:
Assay type in all cases: in vivo
Tetranychus urticae = assay: Efficacy test against Tetranychus urticae (spray on green beans); settings: 240 h, 125 ppm by mass, sprayed on green beans, adult females, 10 days after spraying, 25° C., read-out: insecticical rate against Tetranychus urticae (mortality of adults)
Experimental: (§1) 5 parts by mass of the compound of the present invention, 93.6 parts by mass of dimethylformamide, and 1.4 parts by mass of polyoxyethylene alkylaryl ether were mixed and dissolved to prepare an emulsion (I) containing 5% of an active ingredient.
Seedlings of green beans were grown in 3-inch pots, and 8 adult female Tetranychus urticae from Aomori Prefecture were inoculated onto the first leaves. […] The diluent solution was sprayed on the green beans. The green beans were then placed in a thermostatic chamber with a temperature of 25° C. and humidity of 65%. Mortality of the adult […] was investigated after 10 days had passed from the spraying. The test was repeated twice.

Tetranychus kanzawai = assay: Efficacy test against Tetranychus kanzawai (spray on kidney bean); settings: 240 h, 125 ppm by mass, sprayed on kidney bean plants, adult females, 10 days after spraying, 25° C., read-out: insecticical rate against Tetranychus kanzawai (mortality of adults)
Description: as §1
The primary leaves of Kidney bean plants were inoculated with 5 adult female Tetranychus kanzawai from Okayama Prefecture. […] This drug was sprayed on the Kidney bean plants and air-dried. The kidney bean seedlings were then placed in a thermostatic chamber with a temperature of 25° C. and humidity of 65%. Mortality of the adult […] was investigated after 10 days had passed from the spraying. The test was repeated twice.

Mythimna separata = assay: Efficacy test against Mythimna separata (maize leaf dip); settings: 125 ppm by mass, maize leaf pieces immersed 30 seconds, second-instar larvae, 6 days after release, 25° C.
Description: as §1
Maize leaf pieces were immersed in the diluent solution for 30 seconds. These maize leaf pieces were placed in a petri dish, and five second-instar larvae of Mythimna separata were released to prepare an emulsion-treated section.
Similarly, the solvent control solution was diluted with water at the same ratio as that of the emulsion (I), and maize leaf pieces were immersed therein for 30 seconds. These maize leaf pieces were placed in a petri dish, and five second-instar larvae of Mythimna separata were released to prepare a solvent control section.
The petri dishes were left to stand in a thermostatic chamber at a temperature of 25° C. and a humidity of 60% during the test period. Mortality was evaluated at a time of passage of 6 days from the release of the insects, and the insecticidal rate in the emulsion-treated section was calculated, based on the following expression. At the same time, the food consumptions in the emulsion-treated section and the solvent control section were measured. The test was repeated twice.
Insecticidal rate (%)=(Number of dead insects/Number of test insects)×100

| Structure (SMILES) | mortality at 125 ppm (Tetranychus urticae) [%] | mortality at 125 ppm (Tetranychus kanzawai) [%] | Insecticidal rate against Mythimna separata (Mythimna separata) [%] |
| --- | --- | --- | --- |
| CCSCC(C)(C)CNC(=O)c1cc(C#N)c(-c2ccc(C(F)(F)F)cc2)nc1C [A-147, 5-Cyano-N-[3-(ethylthio)-2,2-dimethylpropyl]-2-methyl-6-[4-(trifluoromethyl)phenyl]ni cotinamide] | ≥ 90 | ≥ 90 |  |
| CCSCCC(CC)(CC)CNC(=O)c1cc(C#N)c(-c2ccc(C(F)(F)F)cc2)nc1C [A-78, 5-Cyano-N-[2,2-diethyl-4-(ethylthio)butyl]-2-methyl-6-[4-(trifluoromethyl)phenyl]nicoti namide] | ≥ 90 | ≥ 90 |  |
| CCSCCC(CC)(CC)CNC(=O)c1cc(C#N)c(-c2ccc(OC(F)(F)F)cc2OC)nc1C [A-27] |  |  | 90 |
| CCSCC(C)(C)CN(C)C(=O)c1cc(C#N)c(-c2ccc(C(F)(F)F)cc2)nc1C [A-146, 5-Cyano-N-[3-(ethylthio)-2,2-dimethylpropyl]-N,2-dimethyl-6-[4-(trifluoromethyl)pheny 1]nicotinamide] | ≥ 90 | ≥ 90 |  |
| CCSCCC(CC)(CC)CNC(=O)c1cc(C#N)c(-c2ccc(C(F)(F)F)cc2)cc1C(F)(F)F [C-7, 2-Cyano-N-[2,2-diethyl-4-(ethylthio)butyl]-4′,5-bis(trifluoromethyl)-(1,1′-biphenyl)-4-ca rboxamide] | ≥ 90 | ≥ 90 |  |
| CCSCCC(C)(C)CN(C)C(=O)c1cc(C#N)c(-c2ccc(C(F)(C(F)(F)F)C(F)(F)F)cc2)nc1C [A-105] |  |  | 90 |
